The values that follow come from patent publication US5556857A, “Disturbance-of-consciousness improving agent” (priority 1991, dated 1996).

Series [1] concerns mouse model of coma following head injury. The series can be described thus: Evaluation of disturbance-of-consciousness improving effect in a mouse model of coma following head injury. It is filed as in vivo. The note with it: Oral, 30 mg/kg.
The target in series [2] is sigma receptor. The series can be described thus: Binding affinity for the sigma receptor ([3H]-DTG binding test). More on the design: species or system Wistar strain male rat. The note with it: [3H]-DTG 3 nM, rat whole brain membrane, 25° C., 60 minutes; ± SED; read-out: Inhibitory activity IC50. How it is done:
Binding affinity for the sigma receptor
A membrane fraction was prepared and a [^3 H]-1,3-di[2-tolyl]guanidine (DTG) binding test was performed, both by the method of Wettstein et al. [Wettstein, J. F., Romman, F. J., Rocher, M. N. and Junien, J. L., Psychopharmacology, 104, 157-163 (1991)]. Thus, a Wistar strain male rat was decapitated and the whole brain was excised and homogenized in 30 volumes of ice-cooled 50 mM Tris hydrochloride buffer (pH 7.4). The homogenate was then centrifuged at 4° C. and 50,000 g for 15 minutes. The sediment obtained was suspended in one volume of the same buffer as mentioned above and, after 45 minutes of incubation at 37° C., the suspension was centrifuged again. The sediment obtained was suspended in one volume of the same buffer and the suspension was stored frozen at -80° C. until use.
The binding experiment was performed as follows. […]
The filter was transferred to a vial and after addition of 5 ml of a liquid scintillation cocktail (Aquasol 2), the vial was allowed to stand in the dark for a predetermined time. The radioactivity was then measured using a scintillation counter. The amount of specific binding was determined by subtracting the binding amount in the presence of 10 μM haloperidol from the total binding amount. The IC50 values were calculated by computer analysis using the nonlinear least squares method.

For series [3], the system named is sigma receptor. The experiment in a line: Antagonistic experiment with sigma receptor antagonists on the disturbance-of-consciousness improving effect. The class given is in vivo. The note with it: 10 mg/kg, alone. How it is done:
Antagonistic experiment with sigma receptor antagonists
Whether the improving effect of sigma receptor agonists on impaired consciousness is due to their effect on specific receptors was investigated using test compounds 14 and 15 which are sigma receptor antagonists. […] Similarly, the disturbance-of-consciousness improving effect of test compounds 10 and 12 was inhibited by 30 mg of another sigma receptor antagonist test compound 15.

The conditions of series [4]: literature; cited from earlier work.
For series [5] the following is noted: literature (Brain and Nerve, 39:983-990, 1987); cited from earlier work.
The subject of another series is sigma receptors. To be noted: cited from earlier work.

Like-named read-outs stand apart in the source and are kept apart here.

As for `COc1cccc(N2CCN(CCCN3C(=O)CCc4c(Cl)cccc43)CC2)c1` [Example 2], in series [1], the “RR time (time to recovery of righting reflex)” value is 28 % of control and the “SM time (time to recovery of spontaneous mobility)” value is 28 % of control. Besides, the concentration for half-maximal inhibition (IC50) at sigma receptor [2] was determined as 130 ± 16 nM.

Turning to `COc1cccc2c1CCC(=O)N2CCCN1CCN(c2cccc(Cl)c2)CC1.Cl` [Test compound 1, 1-{3-[4-(3-Chlorophenyl)-1-piperazinyl]propyl}-5-methoxy-3,4-dihydrocarbostyril hydrochloride], in series [1], the “RR time (time to recovery of righting reflex)” value is recorded as 20 % of control and the “SM time (time to recovery of spontaneous mobility)” value was 20 % of control. For the same molecule, the IC50 at sigma receptor [2] was found to be 340 ± 110 nM. In the series with sigma receptor [3], this molecule displayed an RR time of 32 % control and an SM time of 38 % control.

As to `CC(=O)OCC[N+](C)(C)C` [acetylcholine], the side effects result in series [4] is given as “serious side effects”.

As for `O=C(CCCN1CCC(O)(c2ccc(Cl)cc2)CC1)c1ccc(F)cc1` [haloperidol], the “effect on impaired consciousness” value in series [5] is recorded as “delays recovery from coma”. The “affinity for sigma receptors” value in the series on sigma receptors is reported as “have affinities for these receptors”. In series [4], the side effects result is “dystonia”.

With `CN[C@@H](C)Cc1ccccc1` [methamphetamine], in series [5], the “effect on impaired consciousness” value was “improves impaired consciousness”. For the same molecule, the side effects entry in series [4] is “may produce an addictive behavior as well as schizophrenic responses such as hallucinations and delusion”.

With `CC[C@@H](CO)NC(=O)[C@@H]1C=C2c3cccc4c3c(cn4C)C[C@H]2N(C)C1` [methysergide], in series [5], the “effect on impaired consciousness” value is “improves impaired consciousness”.

On to `c1ccc(C2(N3CCCCC3)CCCCC2)cc1` [phencyclidine], for which the “affinity for sigma receptors” value in the series with sigma receptors (literature) is reported as “having an affinity for sigma receptors”. Moreover, the side effects entry in series [4] is “induces schizophrenic responses such as hallucinations and delusion”.

With `CNC(=O)Oc1ccc2c(c1)[C@]1(C)CCN(C)[C@@H]1N2C` [physostigmine], the “effect on impaired consciousness” value in series [5] is given as “effective in improving disturbances of consciousness at low non-toxic doses”.
